Data: ChEMBL document CHEMBL1124138, “Synthesis and analgesic activity of pemedolac (cis-1-ethyl-1,3,4,9-tetrahydro-4-(phenylmethyl)pyrano[3,4-b]ind ole-1- acetic acid)” (1988)

How the values were obtained:
Format in all cases: functional
Mus musculus [1] = assay: Percentage inhibition of writhing in mouse at 25 mg/kg (PBQ writhing test)
Mus musculus [2] = organism: Mus musculus; assay: Dose causing 50% inhibition of writhing in mouse (PBQ writhing test)
Rattus norvegicus [3] = organism: Rattus norvegicus; assay: Dose causing an analgesic effect in 50% of rats (Randall-Selitto assay)
Rattus norvegicus [4] = assay: Percentage analgesic effect of rats at 10 mg/kg (Randall-Selitto assay)
Mus musculus [5] = assay: Percentage inhibition of writhing in mouse at 30 mg/kg (PBQ writhing test)
[6] = Ratio of acute ulcerogenesis UD50/Randall-Selitto ED50
[7] = Ratio of carrageenan paw edema ED50/Randall-Sellitto ED50
Rattus norvegicus [8] = assay: Dose causing 50% inhibition of edema by carrageenan paw edema assay
Rattus norvegicus [9] = organism: Rattus norvegicus; assay: Dose at which 50% of the rats had a positive gastrointestinal irritation / ulceration on a quantal all-or-none basis
Rattus norvegicus [10] = assay: Dose causing 50% inhibition of edema by carrageenan paw edema assay.
Rattus norvegicus [11] = organism: Rattus norvegicus; assay: Dose at which 50% of the rats had a positive gastrointestinal irritation / ulceration on a quantal all-or-none basis.
[12] = Rattus norvegicus, read-out: ED50

Compound | Safety index [6] | Ratio [7] | ED50 (Mus musculus [2]; Mus musculus, read-out: ED50) | ED50 (Rattus norvegicus [3]; [12]) | also measured
CC[C@@]1(CC(=O)O)OC[C@@H](Cc2ccccc2)c2c1[nH]c1ccccc21 | – | – | – | – | inhibition in vivo at 25 mg/kg (Mus musculus [1]): 19%
CCC1(CC(=O)O)OCC(Cc2ccccc2)c2c1[nH]c1ccccc21 (single isomer, unassigned; (+)) [PEMEDOLAC] | – | – | – | – | ED50 (Mus musculus [2]): 1.8 mg/kg; ED50 (Rattus norvegicus [3]): 0.04 mg/kg
CCC1(CC(=O)O)OCC(Cc2ccccc2)c2c1[nH]c1ccccc21 (single isomer, unassigned; (-)) [PEMEDOLAC] | – | – | – | – | Effect (Rattus norvegicus [4]): 40%; inhibition in vivo at 30 mg/kg (Mus musculus [5]): 15%
CCC1(CC(=O)O)OCC(Cc2ccccc2)c2c1[nH]c1ccccc21 (stereo in doubt) | > 35000 | 33000 | – | – | –
CCC1(CC(=O)O)OCC(Cc2ccccc2)c2c1[nH]c1ccccc21 (stereo in doubt) [PEMEDOLAC] | – | – | 2 mg/kg | – | ED50 (Rattus norvegicus [8]): ~100 mg/kg; UD50 (Rattus norvegicus [9]): 107 mg/kg; ED50 (Rattus norvegicus [3]): 0.003 mg/kg
CCc1cccc2c3c([nH]c12)C(CC)(CC(=O)O)OCC3 (stereo not drawn) [ETODOLAC] | 13 | 5.1 | – | 4.5 mg/kg | ED50 (Rattus norvegicus [8]): 23 mg/kg; UD50 (Rattus norvegicus [9]): 58 mg/kg
CC(C)Cc1ccc(C(C)C(=O)O)cc1 (stereo not drawn) [IBUPROFEN] | 2.3 | 0.3 | 32.4 mg/kg | 64.5 mg/kg | ED50 (Rattus norvegicus [10]): 21 mg/kg; UD50 (Rattus norvegicus [11]): 150 mg/kg
CN1C(C(=O)Nc2ccccn2)=C(O)c2ccccc2S1(=O)=O [PIROXICAM] | 17 | 3.7 | 3.4 mg/kg | 0.35 mg/kg | ED50 (Rattus norvegicus [10]): 1.3 mg/kg; UD50 (Rattus norvegicus [11]): 6 mg/kg
